# Measurements from EPA's ToxValDB 9.5 (doi:10.2903/j.efsa.2016.4420).
# Legend:
# [1] = test system: Aphidius rhopalosiphi; experiment: LR50; higher = less toxic; settings: not reported; mortality
# [2] = test system: Bibionidae; settings: chronic/long-term
# [3] = test system: Apis mellifera; settings: acute, mortality
# [4] = test system: Rattus norvegicus
# [5] = test system: Oryctolagus sp.; settings: developmental; development
# [6] = test system: Pimephales promelas; settings: chronic/long-term; reproduction
# [7] = test system: Oncorhynchus mykiss; settings: acute; duration: 96 hours; mortality
# [8] = test system: Canidae; settings: chronic; duration: 2 years; Dog Other; histopathology: nonneoplastic
# [9] = test system: Tagia sp.; settings: chronic/long-term; growth
# [10] = test system: Folsomia candida; settings: chronic/long-term; mortality
# [11] = test system: Danio rerio; settings: chronic
# [12] = test system: Anas platyrhynchos
# [13] = chronic; duration: 128 days; other
# [14] = test system: Daphnia magna; settings: chronic/long-term; duration: 21 days; reproduction
smiles,measurement,setting,value
CCC(CC)Nc1c([N+](=O)[O-])cc(C)c(C)c1[N+](=O)[O-] [Pendimethalin],LR50,[1],1200 g/ha
same,NOEC,[2]; duration: 28 days,227 mg/kg
same,NOEC,[2]; duration: 30 days,0.082 mg/L
same,LD50,[3]; dermal,> 100 µg/piece
same,LD50,"[3]; oral, unspecified",> 101 µg/piece
same,LD50,"[4]; acute, mortality",3930 mg/kg-day
same,NOAEL,"[4]; reproduction developmental, body weight",30 mg/kg-day
same,NOAEL,[5],30 mg/kg-day
same,NOEC,[6],0.0063 mg/L
same,LC50,[7],0.196 µg/mL
same,NOAEL,[8],12.5 mg/kg-day
same,NOEC,[9],33.5 mg/kg
same,NOEC,[10],193 mg/kg
same,NOEC,[11],0.032 mg/L
same,LD50,"[12]; acute, oral, unspecified, mortality",1420 mg/kg-day
same,NOEL,[12]; reproductive,17.5 mg/kg-day
same,NOEC,[13],0.00023 mg/L
same,NOEC,[14],0.0145 mg/L
